Where two headings read alike, the source gives them in different places.
Tests used:
[1] = for ratio of signal against twice the signal of propranolol, Epithelium 10 min / ratio of signal against twice the signal of propranolol, Epithelium 60 min: rabbit corneal epithelium; for ratio of signal against twice the signal of propranolol, Epithelium 10 min / ratio of signal against twice the signal of propranolol, Stroma 10 min: 10 min after eye drop; for ratio of signal against twice the signal of propranolol, Epithelium 10 min / ratio of signal against twice the signal of propranolol, Epithelium 60 min / ratio of signal against twice the signal of propranolol, Stroma 10 min / ratio of signal against twice the signal of propranolol, Stroma 60 min: MALDI-IMS; for ratio of signal against twice the signal of propranolol, Epithelium 60 min / ratio of signal against twice the signal of propranolol, Stroma 60 min: 60 min after eye drop; for ratio of signal against twice the signal of propranolol, Stroma 10 min / ratio of signal against twice the signal of propranolol, Stroma 60 min: rabbit corneal stroma
Protocol: Three months old female New Zealand White rabbits, 2.5–2.8 kg (Envigo Laboratories, Blackthron, Bicester, UK), were used in the study to determine the distribution of drugs in the cornea. […] The rabbits were sacrificed by injecting a lethal dose (2 mL/kg) of pentobarbital (Mebunat vet 60 mg/mL; Orion Pharma, Finland) into the marginal ear vein at 10, 20, and 60 min post-dosing. The eyes were removed and snap-frozen with liquid nitrogen in plastic tubes and stored at −80 °C until sample preparation and analysis with MALDI-IMS.
The frozen eyes were mounted onto a chuck using an optimal cutting temperature compound (Sakura Finetek, Torrance, CA, USA). The samples were sectioned to 20 μm or 35 μm thickness at −20 °C on a Leica CM Cryostat (S3050, Leica Microsystems GmbH, Wetzlar, Germany) and collected on a cryo-film (3C16UF, SECTION-LAB Co. Ltd., Yokohama, Japan) by a modified Kawamoto method. The film was subsequently mounted onto a microscope glass slide using a double-sided copper tape, and the sample slides were dried in a lyophilization chamber. The slides were washed twice with 50 mM ammonium formate for 10 s and dried in a vacuum desiccator. The sample slides contained sections from three eyes from the eye drop experiment and three blanks. The matrix α-cyano-4hydroxycinnamic acid (CHCA) (7 mg/mL in 50% acetonitrile containing 1% trifluoro acetic acid) (Sigma-Aldrich, St. Louis, MO, USA) was added via spray deposition using 10 passes, flow rate of 100 μL/min, temperature of 77 °C, track spacing of 2.5 mm, and velocity of 1300 mm/min (TM-Sprayer, HTX Technologies, Chapel Hill, NC, USA).
Fourier transform-ion cyclotron resonance (FT-ICR) MALDI-IMS was performed using a Bruker 7T SolariX XR mass spectrometer (Bruker Daltonics, Bremen, Germany) at 50 μm spatial resolution for the corneal area and 150 μm spatial resolution for the rest of the eye. […] MALDI images of each signal were plotted with a 5 mDa mass window using flexImaging^TM software (v4.1, Bruker Daltonics, Bremen, Germany) with datasets normalized by the RMS method and pixel interpolation.
The data for calculation was obtained by taking six crosscuts through the cornea; no normalization was used.

[2] = cited from earlier work
[3] = Drug distribution in porcine ocular tissues ex vivo, comparison across tissues; format: in vitro ADME; conditions: for time to reach equilibrium in tissue: porcine tissues ex vivo, Figure 1
From the text: Cornea. […] Bulbar conjunctiva.

[4] = de-epithelized vs intact cornea; ref [29],[46]; cited from earlier work
in vitro = conditions: pig, pH 7.4
[5] = ex vivo, 180 min epithelial side exposure, donor 2 ng/µL
[6] = ex vivo, 180 min epithelial side exposure, donor 2 ng/µL; remark: listed apart in the source
[7] = ex vivo, 180 min epithelial side exposure, donor 2 ng/µL; remark: listed apart in the source
[8] = design: method as in PMID 3246568; conditions: inferior drug insert application, rabbit; ref [56]; cited from earlier work
[9] = n-octanol/buffer solution distribution coefficient at pH 7.4, ref [10],[44]

## CC(C)NCC(O)COc1cccc2[nH]ccc12 (stereo not drawn) [Pindolol]
[1]
  ratio of signal against twice the signal of propranolol, Epithelium 10 min: 0.21 ± 0.01
  ratio of signal against twice the signal of propranolol, Epithelium 60 min: 0.356± 0.08
  ratio of signal against twice the signal of propranolol, Stroma 10 min: 0.57 ± 0.00
  ratio of signal against twice the signal of propranolol, Stroma 60 min: 0.83 ± 0.13
[2]; as listed in Table S2
  Log D7.4: 0.06
[2]; [9]
  Log D7.4: −0.5

## CC(C)NCC(O)COc1ccc(CC(N)=O)cc1 (stereo not drawn) [Atenolol]
[3]; ex vivo
  difference in concentration between corneal epithelium, corneal stroma and conjunctiva: two-fold
[3]
  time to reach equilibrium in tissue: ≈ 30 min

## CC(C)(C)NCC(O)COc1cccc2c1CC(O)C(O)C2 (stereo not drawn) [Nadolol]
[3]
  time to reach equilibrium in tissue: ≈ 30 min
[2]; [9]
  Log D7.4: −1.54

## CC(C)NCC(O)COc1ccc(CCOCC2CC2)cc1 (stereo not drawn) [Betaxolol]
[3]
  time to reach equilibrium in tissue: ≈ 60 min
[4]
  change of permeability in de-epithelized corneas: only modest or no changes
[2]; as listed in Table S2
  Log D7.4: 0.43
[2]; [9]
  Log D7.4: 0.43

## CC(C)NCC(O)COc1cccc2ccccc12 (stereo not drawn) [Propranolol]
In vitro
  Kp at 3 h, 2 µg/mL: 4.7
[3]
  time to reach equilibrium in tissue: ≈ 60 min
[5]
  concentration in corneal stroma: 0.83 ng/mg
[1]; rabbit, in vivo
  MALDI-IMS signal intensity in corneal tissues and aqueous humor: highest intensity
[4]
  change of permeability in de-epithelized corneas: only modest or no changes
[6]
  concentration in corneal epithelium: 9.46 ng/mg tissue
[7]
  concentration in conjunctiva: 1.24 ng/mg

## CC(C)(C)NC[C@H](O)COc1nsnc1N1CCOCC1 [Timolol]
[3]
  time to reach equilibrium in tissue: ≈ 30 min
[8]
  timolol levels in the inferior relative to the superior cornea: 4–6 fold
[1]
  ratio of signal against twice the signal of propranolol, Epithelium 10 min: 0.19 ± 0.02
  ratio of signal against twice the signal of propranolol, Epithelium 60 min: 0.25 ± 0.08
  ratio of signal against twice the signal of propranolol, Stroma 10 min: 0.36 ± 0.01
  ratio of signal against twice the signal of propranolol, Stroma 60 min: 0.45 ± 0.17
[1]; rabbit, in vivo
  MALDI-IMS signal in corneal tissues and aqueous humor: below the limit of detection in many pixels
[2]; [9]
  Log D7.4: −1.43

## COCCc1ccc(OCC(O)CNC(C)C)cc1 (stereo not drawn) [Metoprolol]
[2]; as listed in Table S2
  Log D7.4: −0.5
